“Also recorded” adds a separate entry of the source.
What was measured:
NanA [1] = target: T1, NanA (Streptococcus pneumoniae, UniProt P62576); test: biochemical; assay type: biochemical; conditions: for inhibition of NanA (in words): modified direct method
NanC [2] = target: T2, NanC (Streptococcus pneumoniae, UniProt A0A0H2UQE4); test: biochemical
NanB [3] = target: T3, NanB (Streptococcus pneumoniae serotype 4, UniProt Q54727); test: biochemical
NanA [4] = target: T1, NanA; test: Hydrolysis of p-NP-Neu5Ac by NanA, conventional indirect spectrophotometric method; assay type: biochemical; conditions: 37°C, stopped with 0.5 M Na2CO3 pH 9.0, 405 nm
Procedure: (§1) The activity of the sialidases was assayed colorimetrically and fluorometrically using the substrates p-NP-Neu5Ac (Sigma, St. Louis, Miss) and 4MU-Neu5Ac (Sigma, St- Louis, Miss), respectively. Conventional indirect assays were performed as previously described. Briefly, the reaction mixtures containing the substrates and up to 100 nM sialidase were incubated at 37°C and stopped by the addition of 0.5 M Na2CO3 pH 9.0 for the colorimetric assay or 0.25 M glycine pH 10.0 for the fluorimetric assay. Released p-NP was detected spectrophometrically at 405 nm. The fluorescence associated with the release of 4-MU was measured at the excitation wavelength of 365 nm and an emission wavelength of 445 nm. These measurements were performed using an EnVision microplate reader (Perkin Elmer, Waltham, Mass.).

NanC [5] = target: T2, NanC; test: Hydrolysis of p-NP-Neu5Ac by NanC, direct spectrophotometric method; assay type: biochemical; conditions: 30°C, 20 mM MES pH 6.0, 400 nm
NanB [6] = target: T3, NanB; test: Hydrolysis of p-NP-Neu5Ac by NanB, conventional indirect spectrophotometric method; assay type: biochemical; conditions: 37°C, stopped with 0.5 M Na2CO3 pH 9.0, 405 nm
Procedure: as §1

NanA [7] = target: T1, NanA; test: Hydrolysis of p-NP-Neu5Ac by NanA, direct spectrophotometric method; assay type: biochemical; conditions: 30°C, 20 mM MES pH 6.0, 400 nm
NanB [8] = conditions: direct method, 30°C, 20 mM MES pH 6.0, 400 nm
NanC [9] = target: T2, NanC; test: Hydrolysis of p-NP-Neu5Ac by NanC, conventional indirect spectrophotometric method; assay type: biochemical; conditions: 37°C, stopped with 0.5 M Na2CO3 pH 9.0, 405 nm
Procedure: as §1

pneumococcal sialidases = system: pneumococcal sialidases; set-up: method as in PMID 18835278; conditions: buffer substance; cited from earlier work
[10] = first order kinetics up to 1,200 μM substrate
[11] = first order kinetics up to 500 μM substrate

T2 sequence (A0A0H2UQE4 entry or part of it): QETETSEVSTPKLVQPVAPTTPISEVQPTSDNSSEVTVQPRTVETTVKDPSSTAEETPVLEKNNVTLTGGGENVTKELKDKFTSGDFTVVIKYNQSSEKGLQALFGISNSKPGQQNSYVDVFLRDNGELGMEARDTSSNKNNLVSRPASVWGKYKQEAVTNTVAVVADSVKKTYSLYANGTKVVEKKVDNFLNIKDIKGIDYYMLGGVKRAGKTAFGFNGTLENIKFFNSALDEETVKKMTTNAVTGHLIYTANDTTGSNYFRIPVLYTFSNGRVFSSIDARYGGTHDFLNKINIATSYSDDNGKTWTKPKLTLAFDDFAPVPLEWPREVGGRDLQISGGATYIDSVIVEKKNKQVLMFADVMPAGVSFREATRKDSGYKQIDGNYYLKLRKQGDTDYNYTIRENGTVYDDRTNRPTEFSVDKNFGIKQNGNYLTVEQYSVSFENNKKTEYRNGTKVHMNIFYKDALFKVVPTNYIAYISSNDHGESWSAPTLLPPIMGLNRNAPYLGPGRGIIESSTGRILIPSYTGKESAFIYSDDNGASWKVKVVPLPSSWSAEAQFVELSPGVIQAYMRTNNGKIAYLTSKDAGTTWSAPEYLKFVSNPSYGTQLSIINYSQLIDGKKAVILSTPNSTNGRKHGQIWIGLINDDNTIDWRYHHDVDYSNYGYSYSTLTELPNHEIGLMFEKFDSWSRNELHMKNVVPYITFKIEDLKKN
T1 sequence (P62576 54-1035): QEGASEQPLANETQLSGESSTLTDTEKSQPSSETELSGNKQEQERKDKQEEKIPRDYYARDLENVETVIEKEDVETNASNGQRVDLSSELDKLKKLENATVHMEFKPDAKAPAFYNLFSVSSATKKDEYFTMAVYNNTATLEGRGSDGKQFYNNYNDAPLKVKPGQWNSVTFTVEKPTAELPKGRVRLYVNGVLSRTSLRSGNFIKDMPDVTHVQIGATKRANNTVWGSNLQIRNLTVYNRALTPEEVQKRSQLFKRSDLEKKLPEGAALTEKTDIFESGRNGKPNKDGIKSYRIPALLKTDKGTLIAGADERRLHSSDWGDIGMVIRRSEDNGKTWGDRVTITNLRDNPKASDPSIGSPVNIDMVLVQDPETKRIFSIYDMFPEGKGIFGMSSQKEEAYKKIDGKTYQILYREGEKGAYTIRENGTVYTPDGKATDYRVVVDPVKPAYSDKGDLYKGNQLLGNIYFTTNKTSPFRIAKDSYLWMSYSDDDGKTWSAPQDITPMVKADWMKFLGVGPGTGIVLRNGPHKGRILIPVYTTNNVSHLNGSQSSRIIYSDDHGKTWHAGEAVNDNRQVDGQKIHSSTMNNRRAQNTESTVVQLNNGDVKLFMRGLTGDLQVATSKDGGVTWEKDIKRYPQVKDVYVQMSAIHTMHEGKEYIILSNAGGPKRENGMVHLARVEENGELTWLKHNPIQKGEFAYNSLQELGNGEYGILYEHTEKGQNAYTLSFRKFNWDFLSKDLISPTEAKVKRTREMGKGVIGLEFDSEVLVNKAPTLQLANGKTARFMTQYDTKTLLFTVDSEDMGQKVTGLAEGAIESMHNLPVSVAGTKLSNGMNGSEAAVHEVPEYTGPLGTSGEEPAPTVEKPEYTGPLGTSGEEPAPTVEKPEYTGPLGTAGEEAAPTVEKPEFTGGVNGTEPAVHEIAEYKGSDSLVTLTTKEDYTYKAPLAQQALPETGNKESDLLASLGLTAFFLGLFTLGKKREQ
T3 sequence (Q54727 30-697): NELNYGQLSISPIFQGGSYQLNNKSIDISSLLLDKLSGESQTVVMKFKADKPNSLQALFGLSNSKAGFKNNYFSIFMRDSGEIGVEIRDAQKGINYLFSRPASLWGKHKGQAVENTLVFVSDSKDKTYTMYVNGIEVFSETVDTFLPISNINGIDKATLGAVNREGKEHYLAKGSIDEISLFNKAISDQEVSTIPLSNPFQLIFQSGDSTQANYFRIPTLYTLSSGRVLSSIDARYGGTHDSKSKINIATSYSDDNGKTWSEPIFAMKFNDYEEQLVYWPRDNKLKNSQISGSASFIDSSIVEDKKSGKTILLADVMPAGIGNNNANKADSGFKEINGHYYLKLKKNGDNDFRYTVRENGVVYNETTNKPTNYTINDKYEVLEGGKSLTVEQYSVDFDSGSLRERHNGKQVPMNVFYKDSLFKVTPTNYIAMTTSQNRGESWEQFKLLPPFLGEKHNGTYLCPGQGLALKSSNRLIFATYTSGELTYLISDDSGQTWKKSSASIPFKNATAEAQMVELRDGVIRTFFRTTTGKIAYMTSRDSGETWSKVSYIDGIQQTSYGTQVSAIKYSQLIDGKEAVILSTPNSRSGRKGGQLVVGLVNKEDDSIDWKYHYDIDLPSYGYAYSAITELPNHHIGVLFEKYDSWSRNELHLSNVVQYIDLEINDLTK

Structure (SMILES): CCC(CC)O[C@@H]1C=C(C(=O)O)C[C@H](N)[C@H]1NC(C)=O [Oseltamivir carboxylate]
- Ki (NanA [1]): 1.77 µM
- inhibition of NanA (in words) (NanA [1]): significant inhibition; also recorded: inhibition constants in the micromolar range
- Ki (NanC [2]): > 7500 µM
- Ki (NanB [3]): > 7500 µM

Structure (SMILES): CC(=O)N[C@H]1[C@H]([C@H](O)[C@H](O)CO)OC(Oc2ccc([N+](=O)[O-])cc2)(C(=O)O)C[C@@H]1O (some centres unmarked) [p-NP-Neu5Ac, 2-O-(p-nitrophenyl)-N-acetylneuraminic acid]
- k cat / K m (NanA [4]): (8.4 ± 0.9) × 10^4 M^-1·s^-1
- K m (NanA [4]; [10]): >1,100 μM
- k cat (NanA [4]; [10]): >490 s⁻¹
- k cat / K m (NanC [5]): (3.4 ± 0.3) × 10^4 M^-1·s^-1
- K m (NanC [5]; [11]): > 500 µM
- k cat (NanC [5]; [11]): >17 s⁻¹
- k cat / K m (NanB [6]): (1.1 ± 0.1) × 10^2 M^-1·s^-1
- K m (NanB [6]; [10]): >1,200 μM
- k cat (NanB [6]; [10]): >11 s⁻¹
- k cat / K m (NanA [7]): (3.5 ± 0.3) × 10^5 M^-1·s^-1
- K m (NanA [7]; [11]): >500 µM
- k cat (NanA [7]; [11]): >175 s⁻¹
- k cat / K m (NanB [8]): (2.7 ± 0.3) × 10^2 M^-1·s^-1
- K m (NanB [8]; [11]): >500 µM
- k cat (NanB [8]; [11]): >0.14 s⁻¹
- k cat / K m (NanC [9]): (1.2 ± 0.1) × 10^4 M^-1·s^-1
- K m (NanC [9]; [10]): > 700 µM
- k cat (NanC [9]; [10]): >11 s⁻¹

Structure (SMILES): CC(=O)N[C@H]1[C@H]([C@H](O)[C@H](O)CO)OC(C(=O)O)=C[C@@H]1O [Neu5Ac2en, 2-deoxy-2,3-didehydro-N-acetylneuraminic acid]
- inhibition of NanA (in words) (NanA [1]): significant inhibition; also recorded: inhibition constants in the micromolar range
- Ki (NanC [2]): 2010 µM

Structure (SMILES): CC(=O)N[C@H]1[C@H]([C@H](O)[C@H](O)CO)OC(C(=O)O)=C[C@@H]1N=C(N)N [Zanamivir]
- Ki (NanA [1]): 720 µM
- inhibition of NanA (in words) (NanA [1]): Very limited inhibitory effects
- Ki (NanC [2]): > 7500 µM
- Ki (NanB [3]): > 7500 µM

Structure (SMILES): O=S(=O)(O)CCNC1CCCCC1 [CHES, 2-n-cyclohexylamino ethane sulfonic acid]
- inhibition of pneumococcal sialidases (in words) (pneumococcal sialidases): weak inhibitor

— article PMC3483245, “Optimization of a direct spectrophotometric method to investigate the kinetics and inhibition of sialidases” (BMC Biochemistry, 2012)
